Read-outs that look alike come from different tables or passages of the source.
Experiments:
[1] = test system: HCV replicon cells; assay: HCV replicon FRET assay; type: cell-based
Method: FRET Assay Preparation. The HCV FRET screening assay was performed in 96-well cell culture plates. The FRET peptide (Anaspec, Inc.) (Taliani et al., Anal. Biochem. 1996, 240, 60-67) contains a fluorescence donor, EDANS, near one end of the peptide and an acceptor, DABCYL, near the other end. The fluorescence of the peptide is quenched by […] resonance energy transfer (RET) between the donor and the acceptor, but as the NS3 protease cleaves the peptide the products are released from RET quenching and the fluorescence of the donor becomes apparent. The assay reagent was made as follows: 5× cell Luciferase cell culture lysis reagent from Promega (#E153A) diluted to 1× with dH2O, NaCl added to 150 mM final, the FRET peptide diluted to 20 μM final from a 2 mM stock.
To prepare plates, HCV replicon cells, with or without a Renilla luciferase reporter gene, were trypsinized and plated in a 96-well plate with titrated test compounds added in columns 3 through 12; columns 1 and 2 contained a control compound (HCV control inhibitor), and the bottom row contained cells with DMSO only. The plates were then placed in a CO2 incubator at 37° C.
Assays. Subsequent to addition of the test compounds described above (FRET Assay Preparation), at various times the plate was removed and Alamar blue solution (Trek Diagnostics, #00-100) was added to measure cellular toxicity. After reading in a Cytoflour 4000 instrument (PE Biosystems), plates were rinsed with PBS and then used for FRET assay by the addition of 30 ul of the FRET peptide assay reagent described above (FRET Assay Preparation) per well. The plate was then placed into the Cytoflour 4000 instrument which had been set to 340 excite/490 emission, automatic mode for up to 20 cycles and the plate read in a kinetic mode. Typically, the signal to noise using an endpoint analysis after the reads was at least three-fold. Alternatively, after Alamar blue reading, plates were rinsed with PBS, then used for luciferase assay using the Promega Dual-Glo Luciferase Assay System or the Promega EnduRen Live Cell Substrate assay.
Compound analysis was performed by quantification of the relative HCV replicon inhibition and the relative cytotoxicity values. To calculate cytoxicity values, the average Alamar Blue fluorescence signals from the control wells were set as 100% non-toxic. The individual signals in each of the compound test wells were then divided by the average control signal and multiplied by 100% to determine […]. To calculate the HCV replicon inhibition values, an average background value was obtained from the two wells containing the highest amount of HCV control inhibitor at the end of the assay period. These numbers were similar to those obtained from naïve Huh-7 cells. The background numbers were then subtracted from the average signal obtained from the control wells and this number was used as 100% activity. The individual signals in each of the compound test wells were then divided by the averaged control values after background subtraction and multiplied by 100% to determine percent activity. EC50 values were calculated as the concentration which caused a 50% reduction in FRET or luciferase activity. The two numbers generated for the compound plate, percent cytoxicity and percent activity, were used to determine compounds of interest for further analysis.

[2] = biological target: T1, HCV NS5B (Hepatitis C virus genotype 1b, UniProt Q9WMX2); assay: Modified HCV NS5B RdRp enzyme assay (preincubation protocol); type: biochemical
T1 construct: The protein was expressed with an 18 amino acid C-terminal truncation to enhance the solubility; made in house; host or cells: E. coli BL21(DE3)
Method: HCV NS5B RdRp cloning, expression, and purification. The cDNA encoding the NS5B protein of HCV, genotype 1b, was cloned into the pET21a expression vector. The protein was expressed with an 18 amino acid C-terminal truncation to enhance the solubility. The E. coli competent cell line BL21(DE3) was used for expression of the protein. Cultures were grown at 37° C. for ˜4 hours until the cultures reached an optical density of 2.0 at 600 nm. The cultures were cooled to 20° C. and induced with 1 mM IPTG. Fresh ampicillin was added to a final concentration of 50 μg/ml and the cells were grown overnight at 20° C.
Cell pellets (3 L) were lysed for purification to yield 15-24 mgs of purified NS5B. The lysis buffer consisted of 20 mM Tris-HCl, pH 7.4, 500 mM NaCl, 0.5% triton X-100, 1 mM DTT, 1 mM EDTA, 20% glycerol, 0.5 mg/ml lysozyme, 10 mM MgCl2, 15 ug/ml deoxyribonuclease I, and Complete TM protease inhibitor tablets (Roche). After addition of the lysis buffer, frozen cell pellets were resuspended using a tissue homogenizer. To reduce the viscosity of the sample, aliquots of the lysate were sonicated on ice using a microtip attached to a Branson sonicator. The sonicated lysate was centrifuged at 100,000×g for 1 hr at 4° C. and filtered through a 0.2 μm filter unit (Corning).
The protein was purified using two sequential chromatography steps: Heparin sepharose CL-6B and polyU sepharose 4B (Pharmacia). The chromatography buffers were identical to the lysis buffer but contained no lysozyme, deoxyribonuclease I, MgCl2 or protease inhibitor and the NaCl concentration of the buffer was adjusted according to the requirements for charging the protein onto the column. Each column was eluted with a NaCl gradient which varied in length from 5-50 column volumes depending on the column type. After the final chromatography step, the resulting purity of the enzyme is >90% based on SDS-PAGE analysis. The enzyme was aliquoted and stored at −80° C.
Standard HCV NS5B RdRp enzyme assay. HCV RdRp genotype 1b assays were run in a final volume of 60 μl in 96 well plates (Corning 3600). The assay buffer is composed of 20 mM Hepes, pH 7.5, 2.5 mM KCl, 2.5 mM MgCl2, 1 mM DTT, 1.6 U RNAse inhibitor (Promega N2515), 0.01 mg/ml BSA (Sigma B6917), and 2% glycerol. All compounds were serially diluted (3-fold) in DMSO and diluted further in water such that the final concentration of DMSO in the assay was 2%. HCV RdRp genotype 1b enzyme was used at a final concentration of 28 nM. A polyA template was used at 6 nM, and a biotinylated oligo-dT12 primer was used at 180 nM final concentration. Template was obtained commercially (Amersham 27-4110). Biotinylated primer was prepared by Sigma Genosys. 3H-UTP was used at 0.6 μCi (0.29 μM total UTP). Reactions were initiated by the addition of enzyme, incubated at 30° C. for 60 min, and stopped by adding 25 μl of 50 mM EDTA containing SPA beads (4 μg/μl, Amersham RPNQ 0007). Plates were read on a Packard Top Count NXT after >1 hr incubation at room temperature.
Modified HCV NS5B RdRp enzyme assay. A modified enzyme assay was performed essentially as described for the standard enzyme assay except for the following: The biotinylated oligo dT12 primer was precaptured on streptavidin-coated SPA beads by mixing primer and beads in assay buffer and incubating at room temperature for one hour. Unbound primer was removed after centrifugation. The primer-bound beads were resuspended in 20 mM Hepes buffer, pH 7.5 and used in the assay at final concentrations of 20 nM primer and 0.67 μg/μl beads. Order of addition in the assay: enzyme (1.75 nM) was added to diluted compound followed by the addition of a mixture of template (0.36 nM), 3H-UTP (0.6 μCi, 0.29 μM), and primer-bound beads, to initiate the reaction; concentrations given are final. Reactions were allowed to proceed for 4 hours at 30° C.
IC50 values for compounds were determined using seven different [I]. […]

T1 sequence (Q9WMX2 2420-2992): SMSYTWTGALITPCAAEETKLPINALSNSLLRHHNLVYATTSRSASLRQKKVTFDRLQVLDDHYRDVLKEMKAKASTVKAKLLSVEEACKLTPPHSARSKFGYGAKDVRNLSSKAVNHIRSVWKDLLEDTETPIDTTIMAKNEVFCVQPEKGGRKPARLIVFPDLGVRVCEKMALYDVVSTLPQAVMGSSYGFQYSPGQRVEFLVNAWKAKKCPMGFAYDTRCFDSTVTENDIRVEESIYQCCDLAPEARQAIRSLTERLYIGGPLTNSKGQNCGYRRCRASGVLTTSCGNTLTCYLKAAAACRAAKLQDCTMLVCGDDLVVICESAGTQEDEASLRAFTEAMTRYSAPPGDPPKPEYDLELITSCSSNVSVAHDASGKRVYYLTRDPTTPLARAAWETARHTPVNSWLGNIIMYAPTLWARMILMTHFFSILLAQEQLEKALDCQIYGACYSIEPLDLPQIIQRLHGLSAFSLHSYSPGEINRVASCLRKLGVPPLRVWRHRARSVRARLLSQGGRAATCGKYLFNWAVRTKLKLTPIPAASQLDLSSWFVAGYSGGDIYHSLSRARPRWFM

Row | SMILES | EC50 ([1]; Hepatitis C virus) [nM] | IC50 [2] [nM] | EC50 [1] [nM]
1 | COc1ccc2c(c1)C1CC1(C(=O)N1CCC3(CCN(C(=O)OC(C)(C)C)C3)C1)Cn1c-2c(C2CCCCC2)c2ccc(C(=O)NS(=O)(=O)C(C)C)cc21 (stereo not drawn) | 4.58 to 500 | 4.58 to 500 | 
2 | COc1ccc2c(c1)C1CC1(C(=O)N1CCC3(CCCN3C(C)=O)CC1)Cn1c-2c(C2CCCCC2)c2ccc(C(=O)NS(=O)(=O)C(C)C)cc21 (stereo not drawn) | 4.58 to 500 | 4.58 to 500 | 
3 | CCCS(=O)(=O)NC(=O)c1ccc2c(C3CCCCC3)c3n(c2c1)CC1(C(=O)N2CCNC4(CCCCC4)C2)CC1c1cc(OC)ccc1-3 (stereo not drawn) | 4.58 to 500 | 4.58 to 500 | 
4 | COc1ccc2c(c1)C1CC1(C(=O)N1CCN(C)C3(CCCCC3)C1)Cn1c-2c(C2CCCCC2)c2ccc(C(=O)NS(=O)(=O)C(C)C)cc21 (stereo not drawn) | 4.58 to 500 | 4.58 to 500 | 
5 | CCCS(=O)(=O)NC(=O)c1ccc2c(C3CCCCC3)c3n(c2c1)CC1(C(=O)N2CCN(C)C4(CCCC4)C2)CC1c1cc(OC)ccc1-3 (stereo not drawn) | 4.58 to 500 | 4.58 to 500 | 
6 | COc1ccc2c(c1)C1CC1(C(=O)N1CCN(C)C3(CCCC3)C1)Cn1c-2c(C2CCCCC2)c2ccc(C(=O)NS(=O)(=O)C(C)C)cc21 (stereo not drawn) | 4.58 to 500 | 4.58 to 500 | 
7 | COc1ccc2c(c1)C1CC1(C(=O)N1CCC3(CCNC3)C1)Cn1c-2c(C2CCCCC2)c2ccc(C(=O)NS(=O)(=O)C(C)C)cc21 (stereo not drawn) | 4.58 to 500 | 4.58 to 500 | 
8 | CCCS(=O)(=O)NC(=O)c1ccc2c(C3CCCCC3)c3n(c2c1)CC1(C(=O)N2CCC4(CCCN4C)CC2)CC1c1cc(OC)ccc1-3 (stereo not drawn) | 4.58 to 500 | 4.58 to 500 | 
9 | COc1ccc2c(c1)C1CC1(C(=O)N1CCCC3(CCN(C)C3=O)C1)Cn1c-2c(C2CCCCC2)c2ccc(C(=O)NS(=O)(=O)C(C)C)cc21 (stereo not drawn) [drawing 22] |  | 4.58 to 500 | 4.58 to 500
10 | COc1ccc2c(c1)C1CC1(C(=O)N1CCCC13CCN(C)CC3)Cn1c-2c(C2CCCCC2)c2ccc(C(=O)NS(=O)(=O)C(C)C)cc21 (stereo not drawn) | 4.58 to 500 | 4.58 to 500 | 
11 | CCCS(=O)(=O)NC(=O)c1ccc2c(C3CCCCC3)c3n(c2c1)CC1(C(=O)N2CCC4(CCCN4C(=O)OC(C)(C)C)CC2)CC1c1cc(OC)ccc1-3 (stereo not drawn) | 4.58 to 500 | 4.58 to 500 | 
12 | COc1ccc2c(c1)C1CC1(C(=O)N1CCCC3(CCN(C)C3)C1)Cn1c-2c(C2CCCCC2)c2ccc(C(=O)NS(=O)(=O)C(C)C)cc21 (stereo not drawn) [drawing 24] |  | 4.58 to 500 | 4.58 to 500
13 | COc1ccc2c(c1)C1CC1(C(=O)N1CCNC3(CCCC3)C1)Cn1c-2c(C2CCCCC2)c2ccc(C(=O)NS(=O)(=O)C(C)C)cc21 (stereo not drawn) | 4.58 to 500 | 4.58 to 500 | 
14 | COc1ccc2c(c1)C1CC1(C(=O)N1CCC3(CCCN3)CC1)Cn1c-2c(C2CCCCC2)c2ccc(C(=O)NS(=O)(=O)C(C)C)cc21 (stereo not drawn) | 4.58 to 500 | 4.58 to 500 | 
15 | COc1ccc2c(c1)C1CC1(C(=O)N1CCC3(CCCN3C)CC1)Cn1c-2c(C2CCCCC2)c2ccc(C(=O)NS(=O)(=O)C(C)C)cc21 (stereo not drawn) | 4.58 to 500 | 4.58 to 500 | 
16 | COc1ccc2c(c1)C1CC1(C(=O)N1CCNC3(CCCCC3)C1)Cn1c-2c(C2CCCCC2)c2ccc(C(=O)NS(=O)(=O)C(C)C)cc21 (stereo not drawn) | 4.58 to 500 | 4.58 to 500 | 
17 | COc1ccc2c(c1)C1CC1(C(=O)N1CCCC3(CCN(C)C3)C1)Cn1c-2c(C2CCCCC2)c2ccc(C(=O)NS(=O)(=O)C(C)C)cc21 (stereo not drawn) [drawing 23] | 4.58 to 500 | 4.58 to 500 | 
18 | CCCS(=O)(=O)NC(=O)c1ccc2c(C3CCCCC3)c3n(c2c1)CC1(C(=O)N2CCC4(CCCN4C(C)=O)CC2)CC1c1cc(OC)ccc1-3 (stereo not drawn) | 4.58 to 500 | 4.58 to 500 | 
19 | CCCS(=O)(=O)NC(=O)c1ccc2c(C3CCCCC3)c3n(c2c1)CC1(C(=O)N2CCCC24CCN(C)CC4)CC1c1cc(OC)ccc1-3 (stereo not drawn) | 4.58 to 500 | 4.58 to 500 | 
20 | COc1ccc2c(c1)C1CC1(C(=O)N1CCC3(CCCN3C(=O)OC(C)(C)C)CC1)Cn1c-2c(C2CCCCC2)c2ccc(C(=O)NS(=O)(=O)C(C)C)cc21 (stereo not drawn) | 4.58 to 500 | 4.58 to 500 | 
21 | CCCS(=O)(=O)NC(=O)c1ccc2c(C3CCCCC3)c3n(c2c1)CC1(C(=O)N2CCCC4(CCN(C)C4)C2)CC1c1cc(OC)ccc1-3 (stereo not drawn) [drawing 25] | 4.58 to 500 | 4.58 to 500 | 
22 | CCCS(=O)(=O)NC(=O)c1ccc2c(C3CCCCC3)c3n(c2c1)CC1(C(=O)N2CCCC4(CCN(C)C4)C2)CC1c1cc(OC)ccc1-3 (stereo not drawn) [drawing 26] |  | 4.58 to 500 | 4.58 to 500
23 | CCCS(=O)(=O)NC(=O)c1ccc2c(C3CCCCC3)c3n(c2c1)CC1(C(=O)N2CCC4(CCCN4)CC2)CC1c1cc(OC)ccc1-3 (stereo not drawn) | 4.58 to 500 | 4.58 to 500 | 
24 | CCCS(=O)(=O)NC(=O)c1ccc2c(C3CCCCC3)c3n(c2c1)CC1(C(=O)N2CCNC4(CCCC4)C2)CC1c1cc(OC)ccc1-3 (stereo not drawn) | 4.58 to 500 | 4.58 to 500 | 

Reference: patent publication US8124601B2, “Compounds for the treatment of Hepatitis C” (Bristol-Myers Squibb Company, priority 2007, dated 2012)
